Measured values reported in ChEMBL document CHEMBL4339188, “Tackling neuroinflammation and cholinergic deficit in Alzheimer's disease: Multi-target inhibitors of cholinesterases, cyclooxygenase-2 and 15-lipoxygenase” (Eur J Med Chem, 2019).

Columns and labels:
Cholinesterase = Cholinesterase (Homo sapiens, UniProt P06276); test: Inhibition of human serum BChE using butyrylthiocholine iodide as substrate pre-incubated for 20 mins before substrate addition and measured for 180 secs by spectrophotometry based Ellman's method
Acetylcholinesterase [1] = target: Acetylcholinesterase (Homo sapiens, UniProt P22303); test: Inhibition of recombinant human AChE using acetylthiocholine iodide as substrate pre-incubated for 20 mins before substrate addition and measured for 180 secs by spectrophotometry based Ellman's method
Acetylcholinesterase [2] = target: Acetylcholinesterase (Electrophorus electricus, UniProt O42275); test: Inhibition of electric eel AChE using acetylthiocholine iodide as substrate incubated for 10 mins by spectrophotometry based Ellman's method
HepG2 = test: cells; settings: Homo sapiens, HepG2, 72 h
Description: Cytotoxicity against human HepG2 cell assessed as reduction in cell viability incubated for 72 hrs by MTT assay

in vitro [3] = settings: human, HepG2 cells
Description: Cytotoxicity against human HepG2 cell assessed as safe dose that maintains 100% cell viability incubated for 72 hrs by MTT assay

in vitro [4] = settings: mouse, mouse neuronal cells
Description: Toxicity in mouse neuronal cells assessed as reduction in cell viability incubated for 72 hrs by MTT assay

in vitro [5] = settings: mouse, mouse neuronal cells; remark: listed apart in the source
Description: Toxicity in mouse neuronal cells assessed as safe dose that maintains 100% cell viability incubated for 72 hrs by MTT assay

[6] = target: T1, Prostaglandin G/H synthase 1 (Ovis aries, UniProt P05979); test: Inhibition of ovine COX -1 by colorimetric inhibitor screening assay kit method
T1 sequence (P05979 whole entry): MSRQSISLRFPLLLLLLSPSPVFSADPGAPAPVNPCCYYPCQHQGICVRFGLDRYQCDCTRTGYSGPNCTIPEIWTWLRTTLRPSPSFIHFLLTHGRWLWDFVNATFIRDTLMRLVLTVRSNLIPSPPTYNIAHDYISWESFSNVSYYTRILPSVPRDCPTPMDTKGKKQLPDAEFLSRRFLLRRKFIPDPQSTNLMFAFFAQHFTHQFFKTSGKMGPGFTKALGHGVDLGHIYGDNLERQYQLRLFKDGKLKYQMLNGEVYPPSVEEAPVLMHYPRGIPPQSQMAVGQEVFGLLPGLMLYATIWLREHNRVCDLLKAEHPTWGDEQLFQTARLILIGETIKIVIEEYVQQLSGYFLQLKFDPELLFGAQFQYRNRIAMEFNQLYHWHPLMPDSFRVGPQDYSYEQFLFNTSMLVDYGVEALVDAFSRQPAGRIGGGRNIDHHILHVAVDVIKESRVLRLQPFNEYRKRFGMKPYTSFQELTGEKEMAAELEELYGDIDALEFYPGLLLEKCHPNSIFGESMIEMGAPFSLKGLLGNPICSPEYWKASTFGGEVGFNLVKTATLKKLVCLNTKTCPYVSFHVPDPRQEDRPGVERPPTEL

PC-12 [7] = test: Anti-inflammatory activity in lipopolysaccharide challenged rat PC12 cells assessed as decrease in TNFalpha production at 100 uM pre-incubated for 24 hrs before LPS challenge for 48 hrs by immunoblot analysis; type: functional
PC-12 [8] = test: Anti-inflammatory activity in lipopolysaccharide challenged rat PC12 cells assessed as decrease in interleukin-1 beta production at 100 uM pre-incubated for 24 hrs before LPS challenge for 48 hrs by immunoblot analysis; type: functional
PC-12 [9] = test: Cytotoxicity against rat PC12 cells assessed as reduction in cell viability up to 300 uM by MTS assay; type: cell-based
[10] = Safety index, ratio of EC100 for test compound to EC100 for tacrine for cytotoxicity against human HepG2 cell assessed as safe dose that maintains 100% cell viability incubated for 72 hrs by MTT assay; type: cell-based; settings: HepG2 cells
in vitro [11] = settings: PAMPA, pH 7.4

Acetylcholinesterase (Electrophorus electricus, UniProt O42275), sequence (O42275 whole entry): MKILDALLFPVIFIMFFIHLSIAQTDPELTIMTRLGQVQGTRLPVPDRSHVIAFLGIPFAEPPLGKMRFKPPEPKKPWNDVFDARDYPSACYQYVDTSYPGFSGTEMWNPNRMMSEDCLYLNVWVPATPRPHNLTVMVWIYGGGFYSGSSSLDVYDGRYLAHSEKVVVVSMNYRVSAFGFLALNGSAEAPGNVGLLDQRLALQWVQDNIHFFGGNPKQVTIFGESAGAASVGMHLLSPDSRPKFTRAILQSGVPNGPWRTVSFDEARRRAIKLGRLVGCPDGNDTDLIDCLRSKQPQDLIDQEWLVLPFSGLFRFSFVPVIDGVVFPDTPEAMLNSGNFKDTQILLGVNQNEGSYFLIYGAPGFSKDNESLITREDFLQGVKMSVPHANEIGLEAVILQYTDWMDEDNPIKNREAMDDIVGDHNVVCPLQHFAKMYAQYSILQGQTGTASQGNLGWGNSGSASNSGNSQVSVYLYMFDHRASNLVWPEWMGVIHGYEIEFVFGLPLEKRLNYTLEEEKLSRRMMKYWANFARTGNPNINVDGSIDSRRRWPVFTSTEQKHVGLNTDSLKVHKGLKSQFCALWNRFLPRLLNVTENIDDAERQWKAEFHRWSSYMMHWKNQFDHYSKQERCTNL
Cholinesterase, sequence (P06276 whole entry): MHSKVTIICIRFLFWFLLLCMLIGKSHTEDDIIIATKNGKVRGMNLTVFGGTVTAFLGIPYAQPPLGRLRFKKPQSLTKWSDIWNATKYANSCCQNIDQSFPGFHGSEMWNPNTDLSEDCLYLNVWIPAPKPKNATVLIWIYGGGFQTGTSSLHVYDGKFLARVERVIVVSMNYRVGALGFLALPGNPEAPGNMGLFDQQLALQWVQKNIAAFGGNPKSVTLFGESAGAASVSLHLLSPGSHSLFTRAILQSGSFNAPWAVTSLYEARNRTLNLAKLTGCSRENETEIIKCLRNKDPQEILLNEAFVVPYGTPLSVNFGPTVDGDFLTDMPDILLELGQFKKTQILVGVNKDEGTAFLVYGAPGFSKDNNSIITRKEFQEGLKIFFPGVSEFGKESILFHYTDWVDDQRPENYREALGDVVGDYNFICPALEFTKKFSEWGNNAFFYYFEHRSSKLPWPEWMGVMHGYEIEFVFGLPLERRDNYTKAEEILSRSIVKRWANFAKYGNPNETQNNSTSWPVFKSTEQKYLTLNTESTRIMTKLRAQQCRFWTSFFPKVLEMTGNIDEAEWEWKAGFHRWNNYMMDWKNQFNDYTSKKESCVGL
Acetylcholinesterase (Homo sapiens, UniProt P22303), sequence (P22303 whole entry): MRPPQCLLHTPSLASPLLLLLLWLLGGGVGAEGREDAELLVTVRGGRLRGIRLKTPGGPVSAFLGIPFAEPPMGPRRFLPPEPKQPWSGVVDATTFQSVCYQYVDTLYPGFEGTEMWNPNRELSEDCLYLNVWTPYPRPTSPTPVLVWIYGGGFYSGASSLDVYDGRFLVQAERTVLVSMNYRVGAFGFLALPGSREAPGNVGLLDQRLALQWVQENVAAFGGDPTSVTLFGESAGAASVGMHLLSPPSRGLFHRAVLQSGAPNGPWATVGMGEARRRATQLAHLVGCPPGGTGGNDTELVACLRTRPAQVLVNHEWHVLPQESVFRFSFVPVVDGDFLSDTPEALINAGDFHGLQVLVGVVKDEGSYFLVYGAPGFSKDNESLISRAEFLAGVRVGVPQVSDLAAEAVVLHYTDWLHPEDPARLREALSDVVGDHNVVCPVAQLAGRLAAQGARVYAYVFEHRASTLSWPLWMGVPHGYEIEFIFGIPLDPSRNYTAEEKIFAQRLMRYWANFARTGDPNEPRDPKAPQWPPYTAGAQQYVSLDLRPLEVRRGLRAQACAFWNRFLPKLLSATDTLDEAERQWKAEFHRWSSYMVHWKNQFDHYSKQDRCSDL

| SMILES | IC50 (Cholinesterase) [µM] | IC50 (Acetylcholinesterase [1]) [µM] | IC50 (Acetylcholinesterase [2]) [µM] | IC50 (HepG2) [µM] | MNTC at 72 h (in vitro [3]) [µM] | IC50 at 72 h (in vitro [4]) [µM] | MNTC at 72 h (in vitro [5]) [nM] | IC50 [6] [µM] | inhibition at 100 µM (PC-12 [7]) [%] | inhibition at 100 µM (PC-12 [8]) [%] | Activity (PC-12 [9]) | selectivity ratio at 72 h [10] | Papp at 6 h, 50 µM (in vitro [11]) [×10⁻⁶ cm/s] |
| --- | --- | --- | --- | --- | --- | --- | --- | --- | --- | --- | --- | --- | --- |
| S=C(NNc1c2c(nc3ccccc13)CCCC2)Nc1ccc(Cl)cc1 | 0.328 | 0.786 | 3.83 | 21.9 | 1.97 | 7.1 | 2400 |  |  |  |  |  |  |
| S=C(NNc1c2c(nc3ccccc13)CCCC2)Nc1ccc(Br)cc1 | 0.426 | 0.571 | 0.861 | 69.5 | 2.96 | 19.7 | 788 |  |  |  |  |  |  |
| O=[N+]([O-])c1ccc(-n2cc(COc3ccc(/C=N/Nc4c5c(nc6ccccc46)CCCC5)cc3)nn2)cc1 | 0.0256 | 1.05 | 0.535 | 53.6 | 7.7 | 2.95 | 830 |  |  |  |  |  |  |
| Cl.Clc1ccc(-n2cc(COc3ccc(/C=N/Nc4c5c(nc6ccccc46)CCCC5)cc3)nn2)cc1 | 0.0678 | 7.03 | 4.38 | 178 | 70 | 8.28 | 3580 | 13.4 | > 60 | > 90 | Non-Toxic | 72 | 6.07 |
| NS(=O)(=O)c1ccc(-n2cc(COc3ccc(/C=N/Nc4c5c(nc6ccccc46)CCCC5)cc3)nn2)cc1 | 0.0389 | 1.11 | 0.807 | 25.7 | 1.04 | 16.4 | 1580 |  |  |  |  |  |  |
| C(=N\Nc1c2c(nc3ccccc13)CCCC2)/c1ccc(OCc2cn(-c3ccccc3)nn2)cc1 | 0.054 | 0.9 | 0.917 | 28.4 | 3.1 | 34.5 | 1950 |  |  |  |  |  |  |
| O=[N+]([O-])c1cccc(-n2cc(COc3ccc(/C=N/Nc4c5c(nc6ccccc46)CCCC5)cc3)nn2)c1 | 0.0482 | 1.46 | 0.066 | 50.1 | 4.18 | 28 | 976 |  |  |  |  |  |  |
| NS(=O)(=O)c1ccc(NC(=S)NNc2c3c(nc4ccccc24)CCCC3)cc1 | 0.307 | 0.961 | 0.792 | 42.3 | 1.19 | 3.25 | 295 |  |  |  |  |  |  |
| C(=N\Nc1c2c(nc3ccccc13)CCCC2)/c1ccc(OCc2cn(Cc3ccccc3)nn2)cc1 | 0.0361 | 1.05 | 0.547 | 33.4 | 1.2 | 5.71 | 2670 |  |  |  |  |  |  |
| COc1ccc(NC(=S)NNc2c3c(nc4ccccc24)CCCC3)cc1 | 0.568 | 0.293 | 0.91 | 70.7 | 3.33 | 4.33 | 1380 |  |  |  |  |  |  |
| Brc1ccc(-n2cc(COc3ccc(/C=N/Nc4c5c(nc6ccccc46)CCCC5)cc3)nn2)cc1.Cl | 0.0926 | 12.8 | 18.1 | 96.7 | 47.9 | 18.6 | 1000 | 13.9 |  |  | 30% |  | 6.26 |
| C#CCOc1ccc(/C=N/Nc2c3c(nc4ccccc24)CCCC3)cc1 | 0.11 | 2.73 | 0.438 | 46.1 | 2.73 | 8.79 | 4810 |  |  |  |  |  |  |
| COc1ccc(-n2cc(COc3ccc(/C=N/Nc4c5c(nc6ccccc46)CCCC5)cc3)nn2)cc1.Cl | 0.0682 | 2.3 | 2.07 | 65.1 | 27.2 | 3.98 | 1450 | 12.2 | > 60 | > 90 | 30% | 27 | 6.35 |
| C=CCNC(=S)NNc1c2c(nc3ccccc13)CCCC2 | 0.722 | 5.77 | 1.35 | 80 | 0.63 | 6.83 | 2770 |  |  |  |  |  |  |
| Cl.O=C(O)c1ccc(-n2cc(COc3ccc(/C=N/Nc4c5c(nc6ccccc46)CCCC5)cc3)nn2)cc1 | 0.304 | 4.03 | 1.32 | 97.9 | 43.1 | 3.71 | 162 |  |  |  |  | 43 | 1.77 |
| S=C(NNc1c2c(nc3ccccc13)CCCC2)Nc1ccccc1 | 0.748 | 0.61 | 1.85 | 82.9 | 6.78 | 10.9 | 395 |  |  |  |  |  |  |
| Cc1ccc(-n2cc(COc3ccc(/C=N/Nc4c5c(nc6ccccc46)CCCC5)cc3)nn2)cc1.Cl | 0.0757 | 3.75 | 20.2 | 262 | 113 | 5.85 | 2580 | 10.9 | > 60 | > 90 | Non-Toxic | 116 | 5.5 |
| NS(=O)(=O)c1cc2c(cc1Cl)N=CNS2(=O)=O [CHLOROTHIAZIDE] |  |  |  |  |  |  |  |  |  |  |  |  | 0.66 |
| CNC(=C[N+](=O)[O-])NCCSCc1ccc(CN(C)C)o1 [RANITIDINE] |  |  |  |  |  |  |  |  |  |  |  |  | 0.04 |
